“Also recorded” adds a separate entry of the source.
Legend:
[1] = test system: mouse tracheas; experiment: Mouse trachea cold storage histology; details: 6 h at 4° C. in PBS+ACT1 peptide vs PBS
[2] = test system: mouse cardiac endothelial cells; experiment: In vitro cold storage and reperfusion injury model, endothelial cells; type: cell-based; details: for IL-8 secretion, endothelial cells (Elisa): UW solution supplemented with ACT1 peptide
Method: These studies were conducted using a modification of the in vitro donor cold storage and reperfusion injury model (Casiraghi et al., 2009). Human umbilical vein endothelial cells (HUVECs) and mouse microvascular endothelial cells were grown to confluence on transwells and transendothelial resistance (TEER) was recorded. To model cold ischemia and reperfusion injury growth, media was removed from the cells and replaced with either ice cold UW solution or UW solution containing ACT1 peptide, and cultures were exposed to 6 h of hypoxia in a hypoxic chamber (Billups-Rothenberg, Del Mar, Calif.) at 4° C. Following hypoxic exposure, UW solution was removed, and to stimulate reperfusion, UW solution was replaced with fresh pre-warmed (37° C.) culture media, and cells were monitored for 24 h. TEER was measured at three time points post reperfusion as a marker of endothelial/epithelial cell death and dysfunction. A loss of […], as measured by TEER, across the cellular monolayer is associated with a loss of cell-cell communication (thus, gap junction and tight junction injury), cell injury, and a leaky endothelial cell lining. In vivo, this would translate as dysfunction of the cell layer and facilitate uncontrolled fluid trafficking, loss of vascular tone, reduced barrier function that would facilitate immune cell infiltration.

[3] = test system: ARPE-19 cells; experiment: VEGF-induced deterioration of trans-epithelial resistance (TER) in ARPE19 monolayers; type: cell-based, human; details: ARPE19 monolayers pre-treated with the ACT peptide
Excerpt: Thus, while not wishing to be bound by theory, stabilizing the tight junction proteins with the ACT peptide can prevent loss of tight-junction disintegration and thus damage to RPE/Bruch's membrane.

[4] = test system: Balb/c donor hearts implanted into B6 recipients; experiment: Mouse heterotopic heart allotransplantation model, 48 h post transplantation; type: in vivo
Method: Heart allograft transplants were performed between Balb/c donors to B6 recipients. Balb/c donor hearts were removed, perfused with UW solution and then static cold stored in either UW solution alone or UW solution supplemented with 100 μM ACT1 peptide for 6 h at 4° C. Following storage, hearts were implanted into B6 recipients using an abdominal heart transplant procedure.
Heterotopic abdominal heart transplants were performed between Balb/c and C57Bl/6 mice, as previously described (Gao et al., 2014). Donor hearts were cold preserved in UW or UW/ACT1 ([…]) for 6 h at 4° C. Following storage, hearts were then implanted and harvested at 48 h post transplantation to access the impact of ACT1 peptide post-treatment on IRI. Post transplant injury was assessed by analyses of serum Cardiac Troponin I and histological scoring of cardiac graft injury (FIG. 9) and inflammation; neutrophil and macrophage infiltration (FIG. 10), and pro-inflammatory cytokine.

[5] = mouse, in vivo
Method: Three CD1 mice were anesthetized by IP injection of 0.2 mL Salazine/ketamine. 10 μL of 1 mM ACT1 peptide dissolved in a solution containing normal saline and 0.05% Brij-78 was gently dripped onto the corneal surface of both eyes and allowed to permeate for 20 or 40 min. 0.05% Brij-78 in normal saline was used on a control mouse. The mice were sacrificed in a CO2 chamber and cervically dislocated at 20, 40 min (the control mouse sacrificed at 20 min). The eyes were removed and rinsed in PBS. A small incision was made in the anterior chamber and the aqueous humor (˜10 μL) was transferred to tube and flash frozen in a dry ice ethanol bath. The total sample was dissolved in 2× samples loading buffer and loaded on a 10-20% Tris-Tricine gel. Gel was transferred to a PDVF membrane and stained using RBT Sigma anti-CX43 CT antibody (1:10000) and a goat anti-RBT AP secondary (1:15000) to reveal the ACT1 band at <10 kDa.

[6] = test system: HUVECs; experiment: HUVEC cold preservation, hypoxia and reperfusion model; type: cell-based, human; details: 48 h reperfusion
Method: (§1) HUVECs were exposed to two experimental conditions to model organ cold storage and reperfusion injuries. Cells were either (A) exposed to 200 nM H2O2 to induce oxidative injury, or (B) exposed to 6 h of cold preservation in UW at 4° C. in hypoxic conditions in the presence or absence of 100 μM ACT1 peptide, followed by 48 h of reperfusion in normal media.
(§2) HUVECs were exposed to either 18 h of cold storage in UW solution or UW/ACT1 followed by 48 h of reperfusion to model IRI in vitro, as previously described (Atkinson et al., 2013), or H2O2±ACT1 peptide to model oxidative stress. Efficacy was determined by TEER and IL-8 release.

[7] = test system: human respiratory epithelial cells; experiment: In vitro cold storage and reperfusion injury model, epithelial cells; type: cell-based
[8] = test system: HUVECs; experiment: HUVEC H2O2 oxidative injury model; type: cell-based, human; details: 200 nM H2O2, ±ACT1 peptide
Method: as §1, §2

[9] = test system: porcine kidney; experiment: Porcine kidney model of cold ischemia (Cx43, nitrotyrosine, apoptosis staining); parameters: species or system pig
Method: These studies were conducted using kidneys procured from 2 standard criteria donor pigs. The organs were flushed via the aorta with preservation solution after 10 minutes of warm ischemia post-mortem. Biopsies were taken prior to treatment. The kidneys were then flushed with either cold Belzer's solution (control) or the same solution containing 100 μm ACT1 peptide, and stored in the respective solutions on ice for 24 h. Biopsies were taken at regular intervals and sections were stained for Cx43 and nitrotyrosine.

[10] = UW solution with 100 μM ACT1, 6 h hypoxia at 4° C., 4, 8 and 24 h post reperfusion, listed as ACT1 peptide
[11] = UW + 100 μM ACT1, 6 h at 4° C., 48 h post transplantation, n=6, listed as ACT1 peptide
[12] = UW/ACT1 (1000 μM) 6 h at 4° C., 48 h, n=3-6

Sequence: RQPKIWFPNRRKPWKKRPRPDDLEI [ACT1]
- trachea histology [1]: preserved trachea histology
- IL-8 secretion, endothelial cells (Elisa) [2]: significantly reduced pro-inflammatory cytokine (IL-8) release
- IL-8 secretion, endothelial cells (Elisa) ([2]; listed as ACT1 peptide): significant reduction in IL-8 secretion
- TEER / cellular injury, endothelial cells [2, 10]: significantly elevated TEER readings; also recorded: significantly reduced cellular injury
- VEGF-induced deterioration of TER [3]: prevents VEGF-induced deterioration of TER
- Histological injury score (FIG. 6A) [4, 11]: significantly reduced cardiac injury
- neutrophil infiltration (FIG. 6C) [4, 11]: significantly reduced neutrophil
- serum cardiac troponin I levels (FIG. 6B) [4, 11]: reduced serum cardiac troponin I; also recorded: significantly reduced
- macrophage (Mac-3) infiltration, immunohistochemistry (FIG. 10B) [4, 12]: significantly reduces post transplant innate immune cell infiltration
- neutrophil (Gr-1) infiltration, immunohistochemistry (FIG. 10A) [4, 12]: significantly reduces post transplant innate immune cell infiltration
- serum concentration of Cardiac troponin I (FIG. 9B) ([4]; UW/ACT1 (1000 μM) 6 h at 4° C., 48 h post transplantation, n=3-6): significantly reduces post transplantation IRI injury
- post transplantation IRI injury, histological grading (FIG. 9A) ([4]; UW/ACT1 (1000 μM) 6 h at 4° C., 48 h post transplantation, n=3-6, listed as ACT1 peptide): significantly reduces ischemic reperfusion induced graft injury and inflammation; also recorded: significantly reduces post transplantation IRI injury
- ACT1 in fluid from the posterior chamber (vitreous humor), Western blot [5]: Lower levels of ACT1 could also be detected
- Trans-endothelial resistance after cold preservation, hypoxia and reperfusion ([6]; 6 h cold preservation in UW at 4° C., hypoxic, 100 μM ACT1): significantly protects endothelial cells from H2O2 to induce oxidative stress, and cold preservation, hypoxic reperfusion injury
- IL-8 secretion after cold preservation, hypoxia and reperfusion ([6]; UW ± 100 μM ACT1): rendered less pro-inflammatory as compared to untreated cells
- IL-8 secretion, epithelial cells ([7]; UW solution supplemented with ACT1 peptide): significant reduction in IL-8 secretion
- TEER / cellular injury, epithelial cells [7, 10]: significantly elevated TEER readings; also recorded: significantly reduced cellular injury
- Trans-endothelial resistance after H2O2 oxidative injury [8]: significantly protects endothelial cells from H2O2 to induce oxidative stress
- apoptosis (TUNEL and caspase) ([9]; 100 μM ACT1, cold ischemia 24 h): minimizes mitochondrial oxidant production (nitrotyrosine) and apoptosis (TUNEL and caspase)
- Cx43 staining (gap junctions) ([9]; 100 μM ACT1 in cold Belzer's solution, up to 24 h cold ischemia, listed as ACT1 peptide): stabilizes gap junctions (Cx43); also recorded: Punctate Cx43 staining in the membrane (gap junctions) were preserved
